Where “and” joins values, the source holds several entries; their conditions need not be identical. Equal values may be shown once.
Key:
[1] = system: lung slices obtained from ovalbumin-sensitized guinea pigs; assay: Ovalbumin-induced airway constriction in lung slices from ovalbumin-sensitized guinea pigs; type: cell-based, guinea pig; conditions: 1 µM Fenoterol, Exp1-5
Excerpt: All curve fits were generated using the software program GraphPad Prism. Data are represented as mean ± SEM of 4–5 guinea pigs (see Table 2 for statistical analyses).
Outbred, male, specified pathogen-free Dunkin Hartley guinea pigs (Charles River Laboratory) weighing 200 to 400 g were used. The animals were housed in pairs under a 12-hour light/dark cycle in a temperature- and humidity-controlled room with food and tap water ad libitum. For studies in the guinea pig model of allergic asthma, animals were actively IgE-sensitized to ovalbumin by injecting a suspension containing 100 μg/mL ovalbumin and 100 mg/mL Al(OH)3 in saline. Each animal was injected with 1.0 mL of suspension: 0.5 mL was injected i.p. and 0.5 mL was divided over 7 s.c. sites close to lymph nodes in the neck, paws, and lumbar regions ([24]). Animals were euthanized at least 4 weeks after sensitization.
Precision-cut lung slices were prepared as described previously ([61], [62]). A 3% solution of low melting-point agarose (Gerbu Biotechnik GmbH) in ultrapure water was prepared by heating it a microwave until fully dissolved. […] After filling, the lungs were covered with ice for 30 minutes to solidify the agarose for slicing. […] Lung slices were cut at a thickness of 500 μm and washed several times with slicing buffer to remove debris and washout the isoproterenol. Slices were incubated overnight in a 60 mm dish in sterile incubation buffer: MEM composed of lung slice buffer supplemented with 0.5 mM sodium pyruvate, 1 mM glutamine (Gibco), MEM-amino acids mixture (1:50), MEM-vitamins mixture (1:100; Gibco), and penicillin-streptomycin (1:100; Gibco), pH = 7.2, at 37°C in a CO2- and humidity-controlled atmosphere.
After washing the slices in medium, individual guinea pig lung slices were mechanically maintained with a Teflon ring with an inner diameter of 7 mm and covered with 1 mL of incubation buffer. […] Image acquisition software (NIS-Elements, Nikon) was used to quantify airway luminal area. Images of the airways were acquired every 2 seconds during the whole course of the experiment, starting 2 minutes before the addition of any agent to allow for baseline measurements of the airway caliber. For each methacholine or ovalbumin concentration, the maximal airway constriction was expressed as percentage of the initial (baseline) airway luminal area and plotted against that concentration.

[2] = system: human lung slices; assay: Methacholine-induced airway constriction in human lung slices; type: cell-based; conditions: for MCh-induced airway constriction response (Figure 7): donor 1-4
Excerpt: All curve fits were generated using the software program GraphPad Prism. Data are represented as mean ± SEM of 4 human donors (see Table 3 for statistical analyses).
Precision-cut human lung slices were purchased from AnaBios and stored in a liquid nitrogen tank. Lung tissue was obtained postmortem and consent for research was obtained by AnaBios for all donors. Characteristics of the donors of the lung tissue are shown in Supplemental Table 2. Slices were rapidly thawed following instructions from AnaBios.
After washing, individual human lung slices were mechanically maintained with a Teflon ring with an inner diameter of 7 mm and covered with 1 mL of incubation buffer. […] Image acquisition software (NIS-Elements, Nikon) was used to quantify airway luminal area. […] Airway constriction in response to each methacholine concentration was expressed as percentage of the initial airway luminal area.

[3] = molecular target: guinea pig β2AR (Cavia porcellus, UniProt Q8K4Z4); assay: 125I-CYP radioligand competition binding, guinea pig β2AR; conditions: DMSO, listed as FEN
guinea pig β2AR, sequence (Q8K4Z4 whole entry): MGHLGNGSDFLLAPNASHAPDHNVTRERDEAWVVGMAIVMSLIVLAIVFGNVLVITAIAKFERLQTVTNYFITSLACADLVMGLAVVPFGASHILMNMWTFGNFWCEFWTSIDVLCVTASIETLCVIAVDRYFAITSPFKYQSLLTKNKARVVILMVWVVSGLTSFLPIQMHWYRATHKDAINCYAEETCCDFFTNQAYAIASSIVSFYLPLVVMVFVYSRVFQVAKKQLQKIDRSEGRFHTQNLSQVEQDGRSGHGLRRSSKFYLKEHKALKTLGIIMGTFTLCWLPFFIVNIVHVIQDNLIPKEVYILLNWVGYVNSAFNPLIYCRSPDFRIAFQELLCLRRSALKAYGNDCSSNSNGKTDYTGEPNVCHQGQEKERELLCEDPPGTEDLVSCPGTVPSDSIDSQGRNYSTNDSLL

Structure (SMILES): CC(Cc1ccc(O)cc1)NCC(O)c1cc(O)cc(O)c1 (stereo not drawn) [Fenoterol, fenoterol]
- OVA-induced airway constriction response (Figure 6) ([1]; [OVA] 100000 ng/ml): 91.8 and 92.1 and 100.5 and 99.1 and 87.0
- OVA-induced airway constriction response (Figure 6) ([1]; [OVA] 1000000 ng/ml): 92.1 and 93.3 and 97.5 and 83.9
- MCh-induced airway constriction response (Figure 7) ([2]; 1 µM Fenoterol, -Log [MCh] 3.5): 66.3 and 38.1 and 61.4 and 57.2
- MCh-induced airway constriction response (Figure 7) ([2]; 1 µM Fenoterol, -Log [MCh] 4): 66.7 and 40.2 and 56.4 and 59
- MCh-induced airway constriction response (Figure 7) ([2]; 1 µM Fenoterol, -Log [MCh] 4.5): 64.6 and 41.7 and 58.9 and 57.8
- MCh-induced airway constriction response (Figure 7) ([2]; 1 µM Fenoterol, -Log [MCh] 5): 64.0 and 44.2 and 53.4 and 60.0
- MCh-induced airway constriction response (Figure 7) ([2]; 1 µM Fenoterol, -Log [MCh] 5.5): 70.0 and 50.2 and 57.7 and 59.1
- MCh-induced airway constriction response (Figure 7) ([2]; 1 µM Fenoterol, -Log [MCh] 6): 78.6 and 52.9 and 60.3 and 62.9
- MCh-induced airway constriction response (Figure 7) ([2]; 1 µM Fenoterol, -Log [MCh] 6.5): 78.2 and 58.1 and 66.2 and 68.4
- MCh-induced airway constriction response (Figure 7) ([2]; 1 µM Fenoterol, -Log [MCh] 7): 83.5 and 66.4 and 73.5 and 75.0
- MCh-induced airway constriction response (Figure 7) ([2]; 1 µM Fenoterol, -Log [MCh] 7.5): 90.1 and 68.0 and 78.3 and 79.7
- MCh-induced airway constriction response (Figure 7) ([2]; 1 µM Fenoterol, -Log [MCh] 8): 97.8 and 78.9 and 83.6 and 92.0
- MCh-induced airway constriction response (Figure 7) ([2]; 1 µM Fenoterol, -Log [MCh] 8.5): 89.0 and 94.8 and 96.5
- MCh-induced airway constriction response (Figure 7) ([2]; 1 µM Fenoterol, -Log [MCh] 9): 100.2 and 93.5 and 97.1 and 98.8
- Airway luminal area at the highest methacholine concentration ([2]; 1 μM fenoterol): 55.7% ± 6.2%
- MCh-induced airway constriction response (Figure 7) ([2]; 10 µM Fenoterol, -Log [MCh] 3.5): 79.8 and 72.5 and 79.3 and 86.4
- MCh-induced airway constriction response (Figure 7) ([2]; 10 µM Fenoterol, -Log [MCh] 4): 80.3 and 75.3 and 80 and 86.3
- MCh-induced airway constriction response (Figure 7) ([2]; 10 µM Fenoterol, -Log [MCh] 4.5): 83.8 and 75.6 and 80.1 and 86.9
- MCh-induced airway constriction response (Figure 7) ([2]; 10 µM Fenoterol, -Log [MCh] 5): 91.0 and 83.4 and 80.2 and 86.4
- MCh-induced airway constriction response (Figure 7) ([2]; 10 µM Fenoterol, -Log [MCh] 5.5): 98.1 and 86.0 and 82.0 and 87.9
- MCh-induced airway constriction response (Figure 7) ([2]; 10 µM Fenoterol, -Log [MCh] 6): 99.0 and 86.3 and 86.9 and 91.9
- MCh-induced airway constriction response (Figure 7) ([2]; 10 µM Fenoterol, -Log [MCh] 6.5): 99.5 and 90.2 and 90.4 and 97.1
- MCh-induced airway constriction response (Figure 7) ([2]; 10 µM Fenoterol, -Log [MCh] 7): 99.7 and 93.0 and 91.3 and 96.6
- MCh-induced airway constriction response (Figure 7) ([2]; 10 µM Fenoterol, -Log [MCh] 7.5): 94.8 and 96.0 and 99.4
- MCh-induced airway constriction response (Figure 7) ([2]; 10 µM Fenoterol, -Log [MCh] 8): 101.4 and 95.9 and 99.4 and 100.7
- MCh-induced airway constriction response (Figure 7) ([2]; 10 µM Fenoterol, -Log [MCh] 8.5): 103.2 and 98.6 and 100.6 and 95.6
- MCh-induced airway constriction response (Figure 7) ([2]; 10 µM Fenoterol, -Log [MCh] 9): 100.3 and 99.4 and 101.1 and 99.5
- Airway luminal area at the highest methacholine concentration ([2]; 10 μM fenoterol): 79.5% ± 2.8%
- EC50 ([2]; Homo sapiens, read-out: MCh pD2, 10 μM Fenoterol (converted)): 1700 nM
- 125I-CYP binding, FEN competition curve (Figure 4D) ([3]; Log [FEN] (M) -4.49485): 3.006 and 3.081 and 4.379 and 2.482
- 125I-CYP binding, FEN competition curve (Figure 4D) ([3]; Log [FEN] (M) -5.09691): 10.5632 and 11.6008 and 14.5744 and 11.1845
- 125I-CYP binding, FEN competition curve (Figure 4D) ([3]; Log [FEN] (M) -5.69897): 27.5943 and 31.6003 and 36.8549 and 31.4566
- 125I-CYP binding, FEN competition curve (Figure 4D) ([3]; Log [FEN] (M) -6.30103): 58.2352 and 64.6742 and 67.2527 and 62.2696
- 125I-CYP binding, FEN competition curve (Figure 4D) ([3]; Log [FEN] (M) -6.90309): 83.5341 and 84.3533 and 88.9652 and 87.8637
- 125I-CYP binding, FEN competition curve (Figure 4D) ([3]; Log [FEN] (M) -7.50515): 93.701 and 97.0547 and 97.6505 and 97.0492
- 125I-CYP binding, FEN competition curve (Figure 4D) ([3]; Log [FEN] (M) -8.10721): 100.713 and 99.5295 and 100.092
- 125I-CYP binding, FEN competition curve (Figure 4D) ([3]; Log [FEN] (M) -8.70927): 98.7203 and 100.799 and 100.482
- 125I-CYP binding, FEN competition curve (Figure 4D) ([3]; Log [FEN] (M) -9.31133): 101.392 and 100.992 and 100.128
- 125I-CYP binding, FEN competition curve (Figure 4D) ([3]; Log [FEN] (M) -9.91339): 99.9817 and 101.061 and 100.058 and 101.342

From paper PMC10503797, “Allosteric modulator potentiates β2AR agonist–promoted bronchoprotection in asthma models” (The Journal of Clinical Investigation, 2023)
